Source: patent US9346810B2, “Pyrrolopyrimidine compounds and uses thereof” (HUTCHISON MEDIPHARMA LIMITED, priority 2010, dated 2016)
Where two headings read alike, the source gives them in different places.

Key:
Format in all cases: biochemical
[1] = target: Recombinant human JAK1 catalytic domain (Homo sapiens (Human), UniProt P23458); assay: JAK1 kinase assay (Z'-LYTE, Tyr 6 Peptide); details: read-out: IC50 in JAK1 kinase assay
Description: (§1) JAK1/2/3 kinase assay are performed in vitro using Kit-Tyr 6 Peptide (Invitrogen, Cat. No. PV4122). TYK2 kinase assay are performed in vitro using Z′-LYTE™ Kinase Assay Kit-Tyr 3 Peptide (Invitrogen, Cat. No. PV3192). […] All compounds are initially tested at 8 different concentrations (1 μM down to 0.0003 μM) using a 1:3 serial dilution scheme.

[2] = target: Recombinant human JAK3 catalytic domain (Homo sapiens (Human), UniProt P52333); assay: JAK3 kinase assay (Z'-LYTE, Tyr 6 Peptide)
Sequence of Recombinant human JAK3 catalytic domain (P52333 822-1111): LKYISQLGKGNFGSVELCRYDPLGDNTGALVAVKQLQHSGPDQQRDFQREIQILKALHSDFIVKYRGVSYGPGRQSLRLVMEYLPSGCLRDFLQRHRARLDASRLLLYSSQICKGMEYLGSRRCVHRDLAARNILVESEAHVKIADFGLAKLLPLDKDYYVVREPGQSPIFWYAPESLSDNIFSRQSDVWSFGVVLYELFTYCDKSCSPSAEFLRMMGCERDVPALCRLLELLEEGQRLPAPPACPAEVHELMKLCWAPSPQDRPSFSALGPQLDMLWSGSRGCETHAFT
Description: as §1

[3] = target: Recombinant human JAK2 catalytic domain (Homo sapiens (Human), UniProt O60674); assay: JAK2 kinase assay (Z'-LYTE, Tyr 6 Peptide)
Sequence of Recombinant human JAK2 catalytic domain (O60674 849-1124): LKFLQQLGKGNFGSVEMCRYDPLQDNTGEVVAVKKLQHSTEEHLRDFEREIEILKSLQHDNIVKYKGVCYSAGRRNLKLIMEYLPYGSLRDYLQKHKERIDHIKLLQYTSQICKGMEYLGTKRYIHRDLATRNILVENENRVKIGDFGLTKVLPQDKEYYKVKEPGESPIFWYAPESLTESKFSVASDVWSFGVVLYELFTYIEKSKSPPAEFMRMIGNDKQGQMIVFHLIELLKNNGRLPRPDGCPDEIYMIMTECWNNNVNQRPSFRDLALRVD
Description: as §1

[4] = read-out: IC50 in JAK3 kinase assay
[5] = read-out: IC50 in JAK2 kinase assay

Sequence of Recombinant human JAK1 catalytic domain (P23458 875-1153): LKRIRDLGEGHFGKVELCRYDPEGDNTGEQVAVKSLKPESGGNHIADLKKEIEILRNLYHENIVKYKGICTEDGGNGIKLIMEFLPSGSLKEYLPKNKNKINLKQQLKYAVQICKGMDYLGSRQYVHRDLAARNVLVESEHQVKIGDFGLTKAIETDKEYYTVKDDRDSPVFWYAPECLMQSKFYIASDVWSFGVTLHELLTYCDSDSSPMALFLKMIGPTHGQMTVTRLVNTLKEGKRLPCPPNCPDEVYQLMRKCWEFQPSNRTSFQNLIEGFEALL

IC50 [1] | IC50 [2, 4] | IC50 [3, 5] | SMILES | also measured
1 to 100 nM |  |  | CN(C(=O)CCc1c(Cl)cccc1Cl)[C@@H]1CCN(c2ncnc3[nH]ccc23)C1 [Compound 21] | 
1 to 100 nM |  |  | CN(C(=O)Nc1ccc(Cl)cc1)[C@@H]1CCN(c2ncnc3[nH]ccc23)C1 [Compound 33] | 
1 to 100 nM |  |  | CN(C(=O)NC1CCOCC1)[C@@H]1CCN(c2ncnc3[nH]ccc23)C1 [Compound 36] | 
1 to 100 nM |  |  | CN(C(=O)N1CCCC1)[C@@H]1CCN(c2ncnc3[nH]ccc23)C1 [Compound 37] | 
1 to 100 nM |  |  | CN(c1cc(F)c(C#N)c(F)c1)[C@@H]1CCN(c2ncnc3[nH]ccc23)C1 [Compound 106] | 
 | 100 to 1000 nM | 1 to 100 nM | CN(c1ccc(C(=O)N[C@H](CO)c2ccccc2)cn1)[C@@H]1CCN(c2ncnc3[nH]ccc23)C1 [Compound 174] | 
 | 1 to 100 nM | 1 to 100 nM | C[C@H](NC(=O)c1ccc(N(C)[C@@H]2CCN(c3ncnc4[nH]ccc34)C2)c(F)c1)c1ccccc1 [Compound 182] | 
 | 100 to 1000 nM | 1 to 100 nM | CN(c1ccc(C(=O)NCc2ccccc2)cc1F)[C@@H]1CCN(c2ncnc3[nH]ccc23)C1 [Compound 187] | 
 | 100 to 1000 nM | 1 to 100 nM | CN(c1ccc(C(=O)NCCO)cn1)[C@@H]1CCN(c2ncnc3[nH]ccc23)C1 [Compound 190] | 

Second part, the molecule before the results:

SMILES | IC50 [1] | IC50 [2, 4] | IC50 [3, 5] | also measured
CN(c1cccc(C#N)c1)[C@@H]1CCN(c2ncnc3[nH]ccc23)C1 [Compound 119, (R)-3-((1-(7H-pyrrolo[2,3-d]pyrimidin-4-yl)pyrrolidin-3-yl)(methyl)amino)benzonitrile] | 1 to 100 nM |  |  | 
C#CCN(c1cnc(C#N)cn1)[C@@H]1CCN(c2ncnc3[nH]ccc23)C1 [Compound 127] | 1 to 100 nM |  |  | 
CN(c1ccc(-c2ccncc2)cn1)[C@@H]1CCN(c2ncnc3[nH]ccc23)C1 [Compound 144, (R)—N-(1-(7H-pyrrolo[2,3-d]pyrimidin-4-yl)pyrrolidin-3-yl)-N-methyl-3,4′-bipyridin-6-amine] | 1 to 100 nM |  |  | 
C#Cc1ccc(N(C)[C@@H]2CCN(c3ncnc4[nH]ccc34)C2)nc1 [Compound 162, (R)—N-(1-(7H-pyrrolo[2,3-d]pyrimidin-4-yl)pyrrolidin-3-yl)-5-ethynyl-N-methylpyridin-2-amine] |  | 1 to 100 nM | 1 to 100 nM | 
CN(c1ccc2nc[nH]c2n1)[C@@H]1CCN(c2ncnc3[nH]ccc23)C1 [Compound 163, (R)—N-(1-(7H-pyrrolo[2,3-d]pyrimidin-4-yl)pyrrolidin-3-yl)-N-methyl-3H-imidazo[4,5-b]pyridin-5-amine] |  | 100 to 1000 nM | 1 to 100 nM | 
CN(c1ccc2[nH]c(=O)[nH]c2n1)[C@@H]1CCN(c2ncnc3[nH]ccc23)C1 [Compound 164, (R)-5-((1-(7H-pyrrolo[2,3-d]pyrimidin-4-yl)pyrrolidin-3-yl)(methyl)amino)-1H-Imidazo[4,5-b]pyridin-2(3H)-one] |  | 100 to 1000 nM | 1 to 100 nM | 
COC(=O)c1ccc(N(C)[C@@H]2CCN(c3ncnc4[nH]ccc34)C2)nc1 [Compound 168, (R)-methyl 6-((1-(7H-pyrrolo[2,3-d]pyrimidin-4-yl)pyrrolidin-3-yl)(methyl)amino)nicotinate] |  | 100 to 1000 nM | 1 to 100 nM | 
CN(c1ccc(C(=O)NC2CC2)cn1)[C@@H]1CCN(c2ncnc3[nH]ccc23)C1 [Compound 171, (R)-6-((1-(7H-pyrrolo[2,3-d]pyrimidin-4-yl)pyrrolidin-3-yl)(methyl)amino)-N-cyclopropylnicotinamide] |  | 100 to 1000 nM | 1 to 100 nM | 
CN(c1c(F)cc(C(=O)N[C@@H](CO)c2ccccc2)cc1F)[C@@H]1CCN(c2ncnc3[nH]ccc23)C1 [Compound 208] |  | 1 to 100 nM | 1 to 100 nM | 
COC[C@H](NC(=O)c1ccc(N(C)[C@@H]2CCN(c3ncnc4[nH]ccc34)C2)nc1)c1ccccc1 [Compound 209] |  | 1 to 100 nM | 1 to 100 nM | 
CCS(=O)(=O)Nc1ccc(N(C)[C@@H]2CCN(c3ncnc4[nH]ccc34)C2)nc1 [Compound 210, (R)—N-(6-((1-(7H-pyrrolo[2,3-d]pyrimidin-4-yl)pyrrolidin-3-yl)(methyl)amino)pyridin-3-yl)ethanesulfonamide] |  |  |  | IC50 [2]: 100 to 1000 nM; IC50 [3]: 1 to 100 nM
